Experimental findings from patent publication US20240124434A1, “ATF6 INHIBITORS AND USES THEREOF” (Altos Labs, Inc., priority 2018, published 2024) are described below.

This assay concerns ATF6. The assay can be described thus: ERSE ATF6-luciferase reporter assay (thapsigargin-induced ER stress). In kind it is cell-based, human. The settings on record: thapsigargin-induced ER stress, U2-OS ATF6 luc reporter cells. As to the method: Human bone osteosarcoma (U2-OS) cells were obtained from the American Type Culture Collection (ATCC HTB-96, ATCC Manassas, VA) and were cultured with growing medium containing Dulbecco's Modified Eagle's Medium (DMEM) (Cat. No.:SH30023.02, HyClone) supplemented with fetal bovine serum (FBS) 10% (Cat. No.: 16000044, Gibco) and 1% penicillin-streptomycin antibiotic cocktail (Cat. No.: SV30010, Hyclone).
Cignal Lenti ATF6 luc reporter (Qiagen #CLS-6031L) was used to produce a stable cell line in U2-OS cells. […] The number of response elements as well as the intervening sequence between response elements has been experimentally optimized to maximize the signal to noise ratio.
Compounds were prepared as 10 mM stock solutions and stored at −80° C.
U2-OS ATF6 luc reporter cells were thawed 3-4 days and split once prior to assays. […] At the day of experiment, cells were pre-treated for 30 min with 50 μL growing medium containing either vehicle (dimethyl sulfoxide (DMSO)) (Cat. No.: D2650, Sigma-Aldrich) or 1 μM test compound. After the pre-incubation time, 50 μL of a solution containing 0.2 μM thapsigargin (Tg)(an ER stress inducer) was added to respective wells. This Tg solution also contained vehicle or test compounds at 1 μM. The final concentration of DMSO in each well was kept at 0.3%. Plates were incubated for 8 hr in humidified chambers.
Finally, after 8 hr, plates were cooled to room temperature for 10 min prior to luciferase assays. Luciferase reactions were performed using Luciferase Assay System (Cat. No.: E4550, Promega). Briefly, each well was washed with 100 μl of PBS1X and then 20 μl of lysis reagent were added into each well. Plates were shaken for 10 min, then 50 μl of Luciferase Assay Reagent were added to each well and luminescence was read with an integration time of 1 s and a gain of 110 in a Synergy 4 Microplate reader.
For the assessment of the half-maximal inhibitory concentration (IC50) for selected compounds, dose-response assays were performed. Compounds were serially diluted using DMSO starting at 30 μM until 1 nM. The assays were run as described above.

Where [1] appears, read: Homo sapiens, U2OS, 8 h, 1 μM test compound, 8 hr, read-out: Inh. ATF6-Luc @ 1 μM [%].
Where [2] appears, read: Homo sapiens, U2OS, dose-response 30 μM to 1 nM, read-out: IC50 ATF6-Luc reporter.

Read-outs that look alike come from different tables or passages of the source.

With `N#Cc1ccc(Cn2cc(NC(=O)c3cc(-c4ccco4)on3)cn2)cc1C(F)(F)F` [Compound 26, N-(1-(4-cyano-3-(trifluoromethyl)benzyl)-1H-pyrazol-4-yl)-5-(furan-2-yl)isoxazole-3-carboxamide], the inhibition at 1 µM under setting [1] is under 25%. Also, under setting [2], the half-maximal inhibitory concentration (IC50) – broadly, the concentration that gives 50% inhibition – is over 10 µM.
Turning to `C[C@H](c1ccc(C(F)(F)F)cc1C(F)(F)F)n1cc(NC(=O)c2cc(-c3ccccn3)[nH]n2)cn1` [Compound 119, (R)—N-(1-(1-(2,4-bis(trifluoromethyl)phenyl)ethyl)-1H-pyrazol-4-yl)-5-(pyridin-2-yl)-1H-pyrazole-3-carboxamide], the inhibition at 1 µM under setting [1] is under 25%. For the same compound, the IC50 under setting [2] is over 10 µM.
Regarding `C[C@H](c1ccc(C(F)(F)F)cc1C(F)(F)F)n1cc(NC(=O)/C=C/c2ccco2)cn1` [Compound 85, (R,E)—N-(1-(1-(2,4-bis(trifluoromethyl)phenyl)ethyl)-1H-pyrazol-4-yl)-3-(furan-2-yl)acrylamide], the inhibition at 1 µM under setting [1] is under 25%. In addition, the half-inhibitory concentration (IC50) under setting [2] is over 10 µM.
The matching figures for `CC(c1ccc(C(F)(F)F)cc1C(F)(F)F)n1cc(NC(=O)/C=C/c2ccccn2)cn1` (stereo not drawn) [Compound 83, (E)—N-(1-(1-(2,4-bis(trifluoromethyl)phenyl)ethyl)-1H-pyrazol-4-yl)-3-(pyridin-2-yl)acrylamide]: under 25% and over 10 µM.
With `C[C@@H](c1ccc(C(F)(F)F)cc1C(F)(F)F)n1cc(NC(=O)c2cc(-c3ncccc3Cl)on2)cn1` [Compound 35, (S)-N-(1-(1-(2,4-bis(trifluoromethyl)phenyl)ethyl)-1H-pyrazol-4-yl)-5-(3-chloropyridin-2-yl)isoxazole-3-carboxamide], the inhibition at 1 µM under setting [1] is under 25%. Moreover, the 50% inhibitory concentration (IC50) under setting [2] is over 10 µM.
As for `Cc1cccc(-c2cc(C(=O)Nc3cnn(Cc4ccc(C(F)(F)F)cc4C(F)(F)F)c3)no2)n1` [Compound 115, N-(1-(2,4-bis(trifluoromethyl)benzyl)-1H-pyrazol-4-yl)-5-(6-methylpyridin-2-yl)isoxazole-3-carboxamide], the inhibition at 1 µM under setting [1] fell in the range of 25 to 50%. In addition, the half-maximal inhibitory concentration (IC50) under setting [2] is over 10 µM.
`CC(C)(O)c1cc(C(=O)Nc2cnn(Cc3ccc(C(F)(F)F)cc3C(F)(F)F)c2)no1` [Compound 2, N-(1-(2,4-bis(trifluoromethyl)benzyl)-1H-pyrazol-4-yl)-5-(2-hydroxypropan-2-yl)isoxazole-3-carboxamide]: under setting [1], the inhibition at 1 µM was under 25%. For the same compound, under setting [2], the half-maximal inhibitory concentration (IC50) is over 10 µM.
For `Cc1c(NC(=O)c2cc(-c3ccccn3)on2)cnn1[C@@H](C)c1ccc(C(F)(F)F)cc1C(F)(F)F` [Compound 98, (S)—N-(1-(1-(2,4-bis(trifluoromethyl)phenyl)ethyl)-5-methyl-1H-pyrazol-4-yl)-5-(pyridin-2-yl)isoxazole-3-carboxamide], the inhibition at 1 µM under setting [1] was under 25%. Further, the concentration for half-maximal inhibition (IC50) under setting [2] is over 10 µM.
`Cc1cccc(-c2cc(C(=O)Nc3cnn([C@H](C)c4ccc(C(F)(F)F)cc4C(F)(F)F)c3)no2)n1` [Compound 116, (R)—N-(1-(1-(2,4-bis(trifluoromethyl)phenyl)ethyl)-1H-pyrazol-4-yl)-5-(6-methylpyridin-2-yl)isoxazole-3-carboxamide]: the inhibition at 1 µM under setting [1] fell in the range of 25 to 50%. For the same compound, under setting [2], the half-maximal inhibitory concentration (IC50) was over 10 µM.
The matching figures for `Cc1nn(-c2ccc(C(F)(F)F)cc2C(F)(F)F)cc1NC(=O)c1cc(-c2ccccn2)on1` [Compound 90, N-(1-(2,4-bis(trifluoromethyl)phenyl)-3-methyl-1H-pyrazol-4-yl)-5-(pyridin-2-yl)isoxazole-3-carboxamide]: under 25% and over 10 µM.
With `O=C(Nc1cnn(C2CCc3ccccc32)c1)c1nnc(-c2ccco2)s1` (stereo not drawn) [Compound 144, N-(1-(2,3-dihydro-1H-inden-1-yl)-1H-pyrazol-4-yl)-5-(furan-2-yl)-1,3,4-thiadiazole-2-carboxamide], the inhibition at 1 µM under setting [1] was under 25%. Besides, the IC50 under setting [2] was over 10 µM.
Consider `O=C(Nc1cnn(Cc2cc(C(F)(F)F)cc(C(F)(F)F)c2)c1)c1cc(-c2ccco2)on1` [Compound 28, N-(1-(3,5-bis(trifluoromethyl)benzyl)-1H-pyrazole-4-yl)-5-(furan-2-yl)isoxazole-3-carboxamide], for which the inhibition at 1 µM under setting [1] is under 25%. Besides, under setting [2], the half-maximal inhibitory concentration (IC50) is over 10 µM.
With `COc1ccccc1-c1cc(C(=O)Nc2cnn([C@H](C)c3ccc(C(F)(F)F)cc3C(F)(F)F)c2)no1` [Compound 88, (R)N-(1-(1-(2,4-bis(trifluoromethyl)phenyl)ethyl)-1H-pyrazol-4-yl)-5-(2-methoxyphenyl)isoxazole-3-carboxamide], the inhibition at 1 µM under setting [1] is under 25%. Also, the IC50 under setting [2] was over 10 µM.
As to `C[C@@H](c1ccc(C(F)(F)F)cc1C(F)(F)F)n1cc(NC(=O)c2nnc(-c3cnccn3)s2)cn1` [Compound 153], the inhibition at 1 µM (Homo sapiens, U2OS, 8 h, read-out: Inh. ATF6-Luc @ 1 μM [%], 1 μM test compound, 8 hr) is under 25%. For the same compound, under “Homo sapiens, U2OS, read-out: IC50 ATF6-Luc reporter [μM], dose-response 30 μM to 1 nM”, the IC50 is over 10 µM.
With `O=C(Nc1cnn(Cc2ccc(C(F)(F)F)cc2C(F)(F)F)c1)c1cnc(Nc2ccccn2)s1` [Compound 130, N-(1-(2,4-bis(trifluoromethyl)benzyl)-1H-pyrazol-4-yl)-2-(pyridin-2-ylamino)thiazole-5-carboxamide], the inhibition at 1 µM under setting [1] was under 25%. Also, the half-maximal inhibitory concentration (IC50) under setting [2] is over 10 µM.
In the case of Ceapin-A8 [reference compound], the “Inh. ATF6-Luc @ 1 μM [%]” value (1 μM test compound, 8 hr) is “+ (+ refers to <25% inhibition at 1 μM)”. Besides, the half-maximal inhibitory concentration (IC50) (dose-response 30 μM to 1 nM, read-out: IC50 ATF6-Luc reporter) was over 10 µM.
With `O=C(Nc1cnn([C@H]2CCc3ccccc32)c1)c1cc(-c2ccco2)on1` [Compound 150, (S)—N-(1-(2,3-dihydro-1H-inden-1-yl)-1H-pyrazol-4-yl)-5-(furan-2-yl)isoxazole-3-carboxamide], the inhibition at 1 µM under setting [1] was under 25%. Under setting [2], the IC50 was over 10 µM.
Take `O=C(Nc1cnn(-c2ccc(C(F)(F)F)cc2C(F)(F)F)c1)c1cc(-c2ccco2)on1` [Compound 27, N-(1-(2,4-bis(trifluoromethyl)phenyl)-1H-pyrazol-4-yl)-5-(furan-2-yl)isoxazole-3-carboxamide]: under setting [1], the inhibition at 1 µM is under 25%. The IC50 under setting [2] is over 10 µM.
On to `CC(C)(C)c1cc(C(=O)Nc2cnn(Cc3ccc(C(F)(F)F)cc3C(F)(F)F)c2)no1` [Compound 13, N-{1-[2,4-bis(trifluoromethyl)benzyl]-1H-pyrazol-4-yl}-5-tert-butyl-1,2-oxazole-3-carboxamide], for which, under setting [1], the inhibition at 1 µM was under 25%. Besides, under setting [2], the 50% inhibitory concentration (IC50) is over 10 µM.
For `C[C@@H](c1ccc(C(F)(F)F)cc1C(F)(F)F)n1cc(NC(=O)c2cc(-c3ncccn3)on2)cn1` [Compound 102, (S)—N-(1-(1-(2,4-bis(trifluoromethyl)phenyl)ethyl)-1H-pyrazol-4-yl)-5-(pyrimidin-2-yl)isoxazole-3-carboxamide], under setting [1], the inhibition at 1 µM was under 25%. Under setting [2], the IC50 is over 10 µM.
For the compound `Cc1nc(-c2ccccn2)sc1C(=O)Nc1cnn([C@H](C)c2ccc(C(F)(F)F)cc2C(F)(F)F)c1` [Compound 106, (R)—N-(1-(1-(2,4-bis(trifluoromethyl)phenyl)ethyl)-1H-pyrazol-4-yl)-4-methyl-2-(pyridin-2-yl)thiazole-5-carboxamide], the inhibition at 1 µM under setting [1] was under 25%. In addition, the IC50 under setting [2] is over 10 µM.
For `O=C(/C=C/c1ccco1)Nc1cnn(Cc2ccc(C(F)(F)F)cc2C(F)(F)F)c1` [Compound 84, (E)—N-(1-(2,4-bis(trifluoromethyl)benzyl)-1H-pyrazol-4-yl)-3-(furan-2-yl)acrylamide], the IC50 under setting [2] is over 10 µM. The inhibition at 1 µM (Homo sapiens, U2OS, 1 μM test compound, 8 hr, read-out: Inh. ATF6-Luc @ 1 μM [%]) was under 25%.
Consider `Cc1c(NC(=O)c2cc(-c3ccccn3)on2)cnn1Cc1ccc(C(F)(F)F)cc1C(F)(F)F` [Compound 30, N-(1-(2,4-bis(trifluoromethyl)benzyl)-5-methyl-1H-pyrazol-4-yl)-5-(pyridin-2-yl)isoxazole-3-carboxamide], for which the inhibition at 1 µM under setting [1] was in the range of 25 to 50%. Further, the IC50 under setting [2] fell in the range of 1 to 10 µM.
In the same order, the values of `C[C@@H](c1ccc(F)cc1C(F)(F)F)n1cc(NC(=O)c2cc(-c3ccccn3)on2)cn1` [Compound 111, (S)—N-(1-(1-(4-fluoro-2-(trifluoromethyl)phenyl)ethyl)-1H-pyrazol-4-yl)-5-(pyridin-2-yl)isoxazole-3-carboxamide] are under 25% and over 10 µM.
